In ChEMBL document CHEMBL6178021, “Optimization of Tambjamines Active against Multiple Stages of Malaria Parasites” (J Med Chem, 2025):
Values after ≈ are worked out from the molar mass of the structure shown.

Tests used:
Plasmodium falciparum [1] = experiment: Antiplasmodial activity against asexual blood-stage Plasmodium falciparum Tm90-C2B using 2% haematocrit and 0.2% parasitemia assessed as reduction in fluorescence measured after 72 hrs by Malaria SYBR Green I-based Fluorescence (MSF) assay; assay type: functional, organism-based
[2] = Metabolic stability in human liver microsomes assessed as half life measured up to 60 mins by LC/MS analysis; assay type: ADME, Microsome
[3] = Metabolic stability in mouse liver microsomes assessed as half life measured up to 60 mins by LC/MS analysis; assay type: ADME, Microsome
[4] = Solubility of the compound in potassium phosphate buffer at pH 7.4 by UV-vis spectroscopy; conditions: buffer
MDR1 (human) [5] = experiment: Apparent permeability across apical to basolateral side in MDCK transfected with human MDR1 cells incubated for 1 hr by LC-MS analysis; conditions: dog, MDCK-MDR1
[6] = (§1) Apparent permeability across basolateral to apical side in MDCK transfected with human MDR1 cells incubated for 1 hr by LC-MS analysis; conditions: dog, mdck, 1 h
MDR1 (human) [7] = experiment: Efflux ratio, ratio of apparent permeability across apical to basolateral side over basolateral to apical side in MDCK transfected with human MDR1 cells incubated for 1 hr by LC-MS analysis; conditions: dog
in vitro [8] = conditions: mouse, liver microsomes
Plasmodium falciparum [9] = experiment: microbe, parasite or virus in culture; conditions: Dd2, 72 h
Description: Antiplasmodial activity against asexual blood-stage Plasmodium falciparum Dd2 using 2% haematocrit and 0.2% parasitemia assessed as reduction in fluorescence measured after 72 hrs by Malaria SYBR Green I-based Fluorescence (MSF) assay

Plasmodium yoelii [10] = experiment: Antimalarial activity against erythrocytic Plasmodium yoelii MRA-428 infected in CF1 mouse assessed as reduction in parasitemia at 10 mg/kg, po once daily for 4 days measured on day 5; assay type: functional; parameters: scale not given: the % may be the effect or the level left; conditions: time 4 day
Plasmodium yoelii [11] = experiment: Antimalarial activity against erythrocytic Plasmodium yoelii MRA-428 infected in CF1 mouse assessed as reduction in parasitemia at 25 mg/kg, po once daily for 4 days measured on day 5; assay type: functional; parameters: scale not given: the % may be the effect or the level left; conditions: time 4 day
Plasmodium yoelii [12] = experiment: Antimalarial activity against erythrocytic Plasmodium yoelii MRA-428 infected in CF1 mouse assessed as reduction in parasitemia at 50 mg/kg, po once daily for 4 days measured on day 5; assay type: functional; parameters: scale not given: the % may be the effect or the level left; conditions: time 4 day
Plasmodium yoelii [13] = experiment: Antimalarial activity against erythrocytic Plasmodium yoelii MRA-428 infected in CF1 mouse assessed as reduction in parasitemia at 80 mg/kg, po once daily for 4 days measured on day 5; assay type: functional; parameters: scale not given: the % may be the effect or the level left; conditions: time 4 day
Plasmodium yoelii [14] = experiment: Antimalarial activity against erythrocytic Plasmodium yoelii MRA-428 infected in CF1 mouse assessed as cured mouse at 25 mg/kg, po once daily for 4 days measured on day 28 day; assay type: functional, organism-based; conditions: time 4.0 day
Plasmodium yoelii [15] = experiment: Antimalarial activity against erythrocytic Plasmodium yoelii MRA-428 infected in CF1 mouse assessed as cured mouse at 50 mg/kg, po once daily for 4 days measured on day 28 day; assay type: functional, organism-based; conditions: time 4.0 day
Plasmodium yoelii [16] = experiment: Antimalarial activity against erythrocytic Plasmodium yoelii MRA-428 infected in CF1 mouse assessed as cured mouse at 80 mg/kg, po once daily for 4 days measured on day 28 day; assay type: functional, organism-based; conditions: time 4.0 day
MDR1 (human) [17] = experiment: as §1; conditions: dog, MDCK-MDR1
in vitro [18] = conditions: human
Description: Selectivity index, ratio of IC50 for cytotoxicity against human HepG2 cells to IC50 for antiplasmodial activity against asexual blood-stage Plasmodium falciparum D6

in vitro [19] = conditions: human, liver microsomes
Plasmodium falciparum [20] = experiment: microbe, parasite or virus in culture; conditions: D6, 72 h
Description: Antiplasmodial activity against asexual blood-stage Plasmodium falciparum D6 using 2% haematocrit and 0.2% parasitemia assessed as reduction in fluorescence measured after 72 hrs by Malaria SYBR Green I-based Fluorescence (MSF) assay

HepG2 = experiment: Cytotoxicity against human HepG2 cells assessed as cell viability measured after 48 hrs by MTT assay; assay type: toxicity, cell-based; conditions: hepg2

CCC1=C(CC)/C(=C/NC2CCCCC2)N=C1c1ccc(Br)[nH]1
IC50 (Plasmodium falciparum [1]): 172 nM | half-life [2]: > 60 min | half-life [3]: > 60 min | solubility [4]: 4.46 µM (≈ 1.68 µg/mL) | Papp A→B at 1 h (MDR1 (human) [5]): 0.004 ×10⁻⁶ cm/s | Papp [6]: 0.15 ×10⁻⁶ cm/s | efflux ratio at 1 h (MDR1 (human) [7]): 0.038 | microsomal CLint at 1 h (in vitro [8]): 16 µL/min/mg | IC50 (Plasmodium falciparum [9]): 336 nM

CCC1=C(CC)/C(=C/N[C@H]2CC[C@H](C)CC2)N=C1c1ccc[nH]1
IC50 (Plasmodium falciparum [1]): 97.1 nM | Activity (Plasmodium yoelii [10]): 88.8% | Activity (Plasmodium yoelii [11]): 100% | Activity (Plasmodium yoelii [12]): 100% | Activity (Plasmodium yoelii [13]): 100% | Activity (Plasmodium yoelii [14]): Active; Two Mouse Cured Out Of Four | Activity (Plasmodium yoelii [15]): Active; Two Mouse Cured Out Of Four | Activity (Plasmodium yoelii [16]): Not active; None Of The Mouse Cured Out Of Four Tested | solubility [4]: 205 µM (≈ 63.9 µg/mL) | Papp A→B at 1 h (MDR1 (human) [5]): 0.015 ×10⁻⁶ cm/s | Papp B→A at 1 h (MDR1 (human) [17]): 0.13 ×10⁻⁶ cm/s | efflux ratio at 1 h (MDR1 (human) [7]): 8.7 | selectivity ratio (in vitro [18]): 235 | microsomal CLint at 1 h (in vitro [19]): 59.5 µL/min/mg | microsomal CLint at 1 h (in vitro [8]): 37 µL/min/mg | IC50 (Plasmodium falciparum [20]): 67.9 nM | IC50 (Plasmodium falciparum [9]): 89.3 nM

COc1ccc(Cc2ccc(C3=N/C(=C\NC4CCCCCC4)C4=C3OCCO4)[nH]2)cc1
IC50 (Plasmodium falciparum [1]): 15.1 nM | IC50 (HepG2): 1.48 µM | half-life [2]: > 60 min | half-life [3]: > 60 min | Activity (Plasmodium yoelii [10]): 1.5% | solubility [4]: 5.52 µM (≈ 2.39 µg/mL) | Papp [6]: 0.57 ×10⁻⁶ cm/s | microsomal CLint at 1 h (in vitro [19]): 16.1 µL/min/mg | microsomal CLint at 1 h (in vitro [8]): 20.6 µL/min/mg | IC50 (Plasmodium falciparum [20]): 11.9 nM | IC50 (Plasmodium falciparum [9]): 21.3 nM

CCC1=C(C)/C(=C/NC2CCCCCCC2)N=C1c1ccc(C)[nH]1
IC50 (Plasmodium falciparum [1]): 4.59 nM | IC50 (HepG2): 3.51 µM | half-life [2]: 45.4 min | half-life [3]: > 60 min | Activity (Plasmodium yoelii [10]): 96.5% | Activity (Plasmodium yoelii [11]): 100% | Activity (Plasmodium yoelii [12]): 100% | Activity (Plasmodium yoelii [13]): 100% | Activity (Plasmodium yoelii [14]): Not active; None Of The Mouse Cured Out Of Four Tested | Activity (Plasmodium yoelii [15]): Not active; None Of The Mouse Cured Out Of Four Tested | Activity (Plasmodium yoelii [16]): Active; Three Mouse Cured Out Of Four | solubility [4]: 19.9 µM (≈ 6.48 µg/mL) | Papp A→B at 1 h (MDR1 (human) [5]): 0.063 ×10⁻⁶ cm/s | Papp B→A at 1 h (MDR1 (human) [17]): 0.04 ×10⁻⁶ cm/s | microsomal CLint at 1 h (in vitro [19]): 30.5 µL/min/mg | microsomal CLint at 1 h (in vitro [8]): 0.47 µL/min/mg | IC50 (Plasmodium falciparum [20]): 6.59 nM | IC50 (Plasmodium falciparum [9]): 3.43 nM

CCC1=C(C)/C(=C/NC2CCCCCC2)N=C1c1ccc(CC)[nH]1
IC50 (Plasmodium falciparum [1]): 7.5 nM | IC50 (HepG2): 4.23 µM | half-life [2]: 39.6 min | half-life [3]: > 60 min | Activity (Plasmodium yoelii [10]): 43.8% | Activity (Plasmodium yoelii [11]): 100% | Activity (Plasmodium yoelii [12]): 100% | Activity (Plasmodium yoelii [13]): 100% | Activity (Plasmodium yoelii [14]): Not active; None Of The Mouse Cured Out Of Four Tested | Activity (Plasmodium yoelii [15]): Not active; None Of The Mouse Cured Out Of Four Tested | Activity (Plasmodium yoelii [16]): Active; Four Mouse Cured Out Of Four | solubility [4]: 12.5 µM (≈ 4.07 µg/mL) | Papp A→B at 1 h (MDR1 (human) [5]): 0.036 ×10⁻⁶ cm/s | Papp B→A at 1 h (MDR1 (human) [17]): 0.037 ×10⁻⁶ cm/s | microsomal CLint at 1 h (in vitro [19]): 35.1 µL/min/mg | microsomal CLint at 1 h (in vitro [8]): 22 µL/min/mg | IC50 (Plasmodium falciparum [20]): 8.4 nM | IC50 (Plasmodium falciparum [9]): 10.8 nM

CCC1=C(CC)/C(=C/NC2CCCCC2)N=C1c1ccc(CC)[nH]1
IC50 (Plasmodium falciparum [1]): 7.09 nM | IC50 (HepG2): 5.17 µM | half-life [2]: > 60 min | half-life [3]: > 60 min | Activity (Plasmodium yoelii [10]): 98.9% | Activity (Plasmodium yoelii [11]): 100% | Activity (Plasmodium yoelii [12]): 100% | Activity (Plasmodium yoelii [13]): 100% | Activity (Plasmodium yoelii [14]): Active; Two Mouse Cured Out Of Four | Activity (Plasmodium yoelii [15]): Not active; None Of The Mouse Cured Out Of Four Tested | Activity (Plasmodium yoelii [16]): Active; Two Mouse Cured Out Of Four | solubility [4]: 31.3 µM (≈ 10.2 µg/mL) | Papp A→B at 1 h (MDR1 (human) [5]): 0.002 ×10⁻⁶ cm/s | Papp B→A at 1 h (MDR1 (human) [17]): 0.091 ×10⁻⁶ cm/s | microsomal CLint at 1 h (in vitro [19]): 17 µL/min/mg | microsomal CLint at 1 h (in vitro [8]): 14.8 µL/min/mg | IC50 (Plasmodium falciparum [20]): 9.03 nM | IC50 (Plasmodium falciparum [9]): 4.34 nM

CCC1=C(CC)/C(=C/NC2CCCCCC2)N=C1c1ccc(C)[nH]1
IC50 (Plasmodium falciparum [1]): 9.02 nM | IC50 (HepG2): 4.21 µM | half-life [2]: > 60 min | half-life [3]: > 60 min | Activity (Plasmodium yoelii [10]): 92.2% | Activity (Plasmodium yoelii [11]): 100% | Activity (Plasmodium yoelii [12]): 100% | Activity (Plasmodium yoelii [14]): Not active; None Of The Mouse Cured Out Of Four Tested | Activity (Plasmodium yoelii [15]): Not active; None Of The Mouse Cured Out Of Four Tested | solubility [4]: 35.9 µM (≈ 11.7 µg/mL) | Papp A→B at 1 h (MDR1 (human) [5]): 0.007 ×10⁻⁶ cm/s | Papp [6]: 0.45 ×10⁻⁶ cm/s | microsomal CLint at 1 h (in vitro [19]): 18.3 µL/min/mg | microsomal CLint at 1 h (in vitro [8]): 16.6 µL/min/mg | IC50 (Plasmodium falciparum [20]): 4.47 nM | IC50 (Plasmodium falciparum [9]): 3.83 nM

CCC1=C(C)/C(=C/NC2CCCCC2)N=C1c1ccc(CC)[nH]1
IC50 (Plasmodium falciparum [1]): 13.3 nM | IC50 (HepG2): 6.01 µM | half-life [2]: 34.3 min | half-life [3]: > 60 min | Activity (Plasmodium yoelii [10]): 45.7% | Activity (Plasmodium yoelii [11]): 100% | Activity (Plasmodium yoelii [12]): 100% | Activity (Plasmodium yoelii [13]): 100% | Activity (Plasmodium yoelii [14]): Not active; None Of The Mouse Cured Out Of Four Tested | Activity (Plasmodium yoelii [15]): Not active; None Of The Mouse Cured Out Of Four Tested | Activity (Plasmodium yoelii [16]): Active; Four Mouse Cured Out Of Four | solubility [4]: 23 µM (≈ 7.16 µg/mL) | Papp A→B at 1 h (MDR1 (human) [5]): 0.46 ×10⁻⁶ cm/s | Papp B→A at 1 h (MDR1 (human) [17]): 0.23 ×10⁻⁶ cm/s | microsomal CLint at 1 h (in vitro [19]): 40.4 µL/min/mg | microsomal CLint at 1 h (in vitro [8]): 13.1 µL/min/mg | IC50 (Plasmodium falciparum [20]): 33.8 nM | IC50 (Plasmodium falciparum [9]): 14.9 nM

CCC1=C(CC)/C(=C/NC2CCCCCCC2)N=C1c1ccc(CC)[nH]1
IC50 (Plasmodium falciparum [1]): 7.8 nM | IC50 (HepG2): 2.72 µM | half-life [2]: > 60 min | half-life [3]: > 60 min | Activity (Plasmodium yoelii [10]): 63.1% | Activity (Plasmodium yoelii [11]): 100% | Activity (Plasmodium yoelii [12]): 100% | Activity (Plasmodium yoelii [14]): Not active; None Of The Mouse Cured Out Of Four Tested | Activity (Plasmodium yoelii [15]): Not active; None Of The Mouse Cured Out Of Four Tested | solubility [4]: < 3.125 µM | Papp [6]: 0.28 ×10⁻⁶ cm/s | microsomal CLint at 1 h (in vitro [19]): 7 µL/min/mg | microsomal CLint at 1 h (in vitro [8]): 14.6 µL/min/mg | IC50 (Plasmodium falciparum [20]): 15.9 nM | IC50 (Plasmodium falciparum [9]): 7.21 nM
